# Results from PMC4853472, “Trapping mammalian protein complexes in viral particles” (Nature Communications, 2016).
# Tests used:
# [1] = biological target: T1, HMG-CoA reductase enzyme (HMGCR) (Homo sapiens, UniProt P04035); assay: Virotrap: trapping in GAG-eDHFR virus-like particles, LC-MS/MS; assay type: cell-based; conditions: MTX-PEG-simvastatin conjugate, not free simvastatin; 1 uM on HEK293T producer cells; DMSO and unrelated-bait controls
# T1 construct: endogenous protein of HEK293T cells, trapped in GAG-eDHFR virus-like particles, identified by LC-MS/MS
# T1 sequence (P04035 1-888): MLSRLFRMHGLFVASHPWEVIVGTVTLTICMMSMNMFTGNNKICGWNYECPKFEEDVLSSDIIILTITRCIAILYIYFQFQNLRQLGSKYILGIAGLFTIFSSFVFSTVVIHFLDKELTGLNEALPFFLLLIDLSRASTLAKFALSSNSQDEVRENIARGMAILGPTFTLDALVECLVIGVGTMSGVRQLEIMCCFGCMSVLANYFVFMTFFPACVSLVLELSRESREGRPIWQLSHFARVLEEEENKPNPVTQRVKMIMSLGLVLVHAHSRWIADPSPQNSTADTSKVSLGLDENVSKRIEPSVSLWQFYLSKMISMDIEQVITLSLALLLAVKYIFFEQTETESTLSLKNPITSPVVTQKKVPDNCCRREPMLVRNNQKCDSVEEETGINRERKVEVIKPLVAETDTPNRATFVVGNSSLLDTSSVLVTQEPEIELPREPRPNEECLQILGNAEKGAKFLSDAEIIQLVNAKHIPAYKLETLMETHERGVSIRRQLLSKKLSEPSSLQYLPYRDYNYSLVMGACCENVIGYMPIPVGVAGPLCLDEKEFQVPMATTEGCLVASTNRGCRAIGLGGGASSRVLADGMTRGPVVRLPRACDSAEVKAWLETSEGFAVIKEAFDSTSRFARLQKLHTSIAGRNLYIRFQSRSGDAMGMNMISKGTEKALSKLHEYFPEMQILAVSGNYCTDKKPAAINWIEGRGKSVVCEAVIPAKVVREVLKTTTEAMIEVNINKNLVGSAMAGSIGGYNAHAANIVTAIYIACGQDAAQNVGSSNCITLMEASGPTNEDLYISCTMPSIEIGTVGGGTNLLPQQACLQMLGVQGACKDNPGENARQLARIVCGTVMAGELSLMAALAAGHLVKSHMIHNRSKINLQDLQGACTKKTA
# MAL TIR (Homo sapiens) = MAL TIR (Homo sapiens) (UniProt P58753); conditions: cited from earlier work
# Sequence of MAL TIR (Homo sapiens) (P58753 81-216): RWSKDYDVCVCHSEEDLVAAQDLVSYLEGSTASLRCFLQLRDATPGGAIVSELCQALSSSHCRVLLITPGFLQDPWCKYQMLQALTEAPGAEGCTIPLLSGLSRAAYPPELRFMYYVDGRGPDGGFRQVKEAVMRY
Compound,Protein trapped in virus-like particles (LC-MS/MS) [1],Kd (MAL TIR (Homo sapiens))
C[C@H]1C=C2C=C[C@H](C)[C@H](CC[C@@H]3C[C@@H](O)CC(=O)O3)[C@H]2[C@@H](OC(=O)C(C)(C)Cc2cn(CCOCCOCCOCCOCCOCCNC(=O)CC[C@H](NC(=O)c3ccc(N(C)Cc4cnc5nc(N)nc(N)c5n4)cc3)C(=O)O)nn2)C1 [MTX-linked simvastatin],consistent enrichment of the known targets for simvastatin (HMG-CoA reductase enzyme (HMGCR)),–
MYD88 TIR (from UniProt Q99836),–,8 µM
